The record followed here is US5843925A, “Methods for inhibiting angiogenesis, proliferation of endothelial or tumor cells and tumor growth” (American Cyanamid Company, priority 1994, dated 1998).

Assay [1] has as its system Adult Bovine Aortic Endothelial (ABAE) cell line. Description: Antiproliferative activity in Adult Bovine Aortic Endothelial (ABAE) cell line, PROTOCOL 1. It counts as cell-based. The settings on record: Bos taurus; ABAE cells, 48 hours exposure. As to the method:
The antiproliferative activity of the compounds of Formula I in an Adult Bovine Aortic Endothelial (ABAE) cell line and in Human Tumor cells lines is evaluated in three similar assays that measure growth inhibition. The assays are identified as follows: PROTOCOLS 1, 2, and 3 are described in greater detail hereinbelow. In general, according to PROTOCOLS 1 and 2, the target ABAE and/or Human Tumor cells are exposed to the compound of Formula I for 48 hours. PROTOCOL 3 exposes ABAE cells to the compounds for 4 days. A detailed description of the protocol is as follows: The antiproliferative activity of the compounds of Formula I of the present invention is evaluated in a panel comprised of human tumor cell lines and an adult bovine aortic endothelial cell line (ABAE). The human tumor cell lines are from All cell lines are maintained in log phase in RPMI 1640 media, supplemented with 5% fetal calf serum, penicillin/streptomycin and 2 mM L-glutamine. Cultures are renewed after 20 passages with cells from a fresh stock of batch-frozen early passage cells. Cell lines are routinely checked for mycoplasma contamination (Genprobe). […] The number of cells on the plate are quantitated using a protein dye-binding assay (Monks et al., 1991). […] The optical densities are read from an automatic spectrophotometric plate reader (Dynatech) directly to a main frame computer (VAX 8600). […] Mean values and standard errors are determined from duplicate wells. […] The number of cells after treatment (P), as % of control, is calculated for every concentration of drug, as follows: [formula] wherein: T is optical density measurement for treated cells after 48 hours; C is optical density measurement for untreated cells after 48 hours; Co is optical density measurement for cells at the time of drug addition. IC50 of growth inhibition is calculated from the sets of P values using the RS-1 data package (BBN Software). Table 2 presents the results depicting the antiproliferative activity of the compounds of Formula I against an adult bovine aortic endothelial cell line (ABAE), as evaluated by PROTOCOL 1 and PROTOCOL 3. […]

A further assay concerns HTB 161. Description: Antiproliferative activity in human tumor cell lines (HTB 161). It counts as cell-based. The method, then:
PROTOCOLS 1, 2, and 3 are described in greater detail hereinbelow. In general, according to PROTOCOLS 1 and 2, the target ABAE and/or Human Tumor cells are exposed to the compound of Formula I for 48 hours. PROTOCOL 3 exposes ABAE cells to the compounds for 4 days. A detailed description of the protocol is as follows:
The antiproliferative activity of the compounds of Formula I of the present invention is evaluated in a panel comprised of human tumor cell lines and an adult bovine aortic endothelial cell line (ABAE). The human tumor cell lines are from
Cultures are renewed after 20 passages with cells from a fresh stock of batch-frozen early passage cells. Cell lines are routinely checked for mycoplasma contamination (Genprobe). In a laminar flow hood, cells (1-5×10^4) are plated into 96-well microtiter plates in a volume of 0.1 ml/well with a bulk microtiter dispenser (Denley). […] Compounds are added using a Tomtec dispenser which simultaneously dispenses from one 96-well plate, containing the drug dilutions, to the plates containing the cells. After two days of continuous drug exposure, 50% cold trichloroacetic acid (TCA) is added to 10% final concentration to fix the cells, and after 60 minutes at 4° C., the TCA is aspirated and the plates are washed 5 times with deionized water using a microtiter plate washer. […] A 0.4% solution of the dye, sulforhodamine B, in […] is added to the plates, and the plates are washed 5 times with 1% glacial acetic acid using the automatic plate washed. The bound stain is solubilized with 0.1 ml of 10 mM Tris base. The optical densities are read from an automatic spectrophotometric plate reader (Dynatech) directly to a main frame computer (VAX 8600).
Positive controls, that include standard chemotherapeutic drugs (i.e., adriamycin, cisplatin, etc.), are included in every experiment.
Background optical density measurements (complete media-cells, and complete media+drug-cells) are automatically subtracted from the appropriate control and test wells. Mean values and standard errors are determined from duplicate wells. A measure is also made of the optical density at time when the drugs are added. The number of cells after treatment (P), as % of control, is calculated for every concentration of drug, as follows: [formula] wherein: T is optical density measurement for treated cells after 48 hours;
C is optical density measurement for untreated cells after 48 hours;
Co is optical density measurement for cells at the time of drug addition.
IC50 of growth inhibition is calculated from the sets of P values using the RS-1 data package (BBN Software).
Antiproliferative Activity in Human Tumor Cell Lines
The antiproliferative activity of the compounds of Formula I is evaluated in the panel comprised of human tumor cell lines as listed in PROTOCOL 1. This assay is a slight modification of PROTOCOL 1. The modifications include:
1) each concentration for each compound is tested in a single well;
2) compounds are tested at 20, 4, 0.8, 0.16 microgram/ml and additionally in some experiments at 100 and 0.32 microgram/ml;
3) samples are pipetted into a 96-well plate for each of the cell lines by a Beckman Biomek 1000 SL robot;
4) after fixing with TCA each well is washed with 0.35 ml distilled water twice, not five times;
5) after staining with sulforhodamine B each well is washed 3 times, not five times;
6) the growth inhibition (I) as % of control, is calculated using the RS-1 data package (BBN Software), for every concentration of drug, as follows: [formula] wherein: T is optical density measurement for treated cells after 48 hours;
7) IC50 of growth inhibition is determined graphically from dose response curves, as is known in the art.

Structures can show the parent of a compound that is named as a salt.

As to `CN(C)CC(=O)Nc1cc(N(C)C)c2c(c1O)C(=O)C1=C(O)[C@]3(O)C(=O)C(C(N)=O)=C(O)[C@@H](N(C)C)C3CC1C2` (stereo partly drawn) [Example 2, [4S-(4a,12aa-1-4,7-Bis(dimethylamino)-9-[[(dimethylamino)acetyl]amino]]-1,4,,4a,5,5a,6,11,12a-octahvdro-3,10,12,12a-tetrahydroxy-1,11-dioxo-2-napththacenecarboxamidedihydrochloride], the IC50 is 6.6 µg/mL in assay [1] and 6 µg/mL in the assay on HTB 161.

For the compound `CCCCCCNCC(=O)Nc1cc(N(C)C)c2c(c1O)C(=O)C1=C(O)[C@]3(O)C(=O)C(C(N)=O)=C(O)[C@@H](N(C)C)C3CC1C2` (stereo partly drawn) [Example 4, [4S-(4α,12aα)]-4,7-Bis(dimethylamino)-9-[(hexylamino)acetyl]amino]-1,4,4a,5,5a,6,11,12a-octahydro-3,10,12,12a-tetrahydroxy-1,11-dioxo-2-naphthacenecarboxamide dihydrochloride], the IC50 in assay [1] came to 2.4 µg/mL; in the assay with HTB 161, 2 µg/mL.

As to `CCCCCCCNCC(=O)Nc1cc(N(C)C)c2c(c1O)C(=O)C1=C(O)[C@]3(O)C(=O)C(C(N)=O)=C(O)[C@@H](N(C)C)C3CC1C2` (stereo partly drawn) [Example 5, [4S-(4α,12aα)]-4,7-Bis(dimethylamino)-9-[[(heptylamino)acetyl]amino]-1,4,4a,5,5a,6,11,12a-octahydro-3,10,12,12a-tetrahydroxy-1,11-dioxo-2-naphthacenecarboxamide dihydrochloride], the results for the IC50 (in assay [1]; with HTB 161) were 2.2 µg/mL and 2.3 µg/mL, respectively.

One may read the IC50 as the concentration that inhibits the measured activity by half. Higher therefore signals weaker potency.
